Data reported in PubChem BioAssay (NCI).
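Cultured in 96-well plates, cells were exposed to test compound for 48 hours across five concentrations. GI50 marks 50% less growth. TGI: total growth inhibition.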

Experiments:
Test in all cases: DTP human tumour cell line panel, 48 h
ACHN renal = system: ACHN renal
SN12C renal = system: SN12C renal
RXF 393 renal = system: RXF 393 renal
OVCAR-4 ovarian = system: OVCAR-4 ovarian
SK-MEL-28 melanoma = system: SK-MEL-28 melanoma
SW-620 colon = system: SW-620 colon
A498 renal = system: A498 renal
MOLT-4 leukemia = system: MOLT-4 leukemia
PC-3 prostate = system: PC-3 prostate
HL-60(TB) leukemia = system: HL-60(TB) leukemia
786-0 renal = system: 786-0 renal
UACC-257 melanoma = system: UACC-257 melanoma
EKVX NSCLC = system: EKVX NSCLC
DU-145 prostate = system: DU-145 prostate
HCT-116 colon = system: HCT-116 colon
OVCAR-8 ovarian = system: OVCAR-8 ovarian
A549 NSCLC = system: A549 NSCLC
HOP-62 NSCLC = system: HOP-62 NSCLC
NCI-H522 lung = system: NCI-H522 lung
HCT-15 colon = system: HCT-15 colon
IGROV1 ovarian = system: IGROV1 ovarian
OVCAR-3 ovarian = system: OVCAR-3 ovarian
NCI/ADR-RES ovarian = system: NCI/ADR-RES ovarian
K-562 leukemia = system: K-562 leukemia
T-47D breast = system: T-47D breast
NCI-H226 lung = system: NCI-H226 lung
LOX IMVI melanoma = system: LOX IMVI melanoma
SNB-19 CNS = system: SNB-19 CNS
UACC-62 melanoma = system: UACC-62 melanoma

CCCN1C(=O)N(CCC)C2C1NC(=S)N2/N=C/C=C/c1ccccc1OC (configuration not stated)
GI50 (ACHN renal): 631 nM
TGI (ACHN renal): 81100 nM
GI50 (SN12C renal): 1840 nM
TGI (SN12C renal): 33300 nM
GI50 (RXF 393 renal): 484 nM
TGI (RXF 393 renal): 85900 nM
GI50 (OVCAR-4 ovarian): 1950 nM
TGI (OVCAR-4 ovarian): > 100000 nM
GI50 (SK-MEL-28 melanoma): 6260 nM
TGI (SK-MEL-28 melanoma): > 100000 nM
GI50 (SW-620 colon): 416 nM
TGI (SW-620 colon): > 100000 nM
GI50 (A498 renal): 203 nM
TGI (A498 renal): 1000 nM
GI50 (MOLT-4 leukemia): 576 nM
TGI (MOLT-4 leukemia): > 66200 nM
GI50 (PC-3 prostate): 424 nM
TGI (PC-3 prostate): > 100000 nM
GI50 (HL-60(TB) leukemia): 337 nM
TGI (HL-60(TB) leukemia): 1710 nM
GI50 (786-0 renal): 779 nM
TGI (786-0 renal): > 68800 nM
GI50 (UACC-257 melanoma): 20300 nM
TGI (UACC-257 melanoma): > 100000 nM
GI50 (EKVX NSCLC): 2220 nM
TGI (EKVX NSCLC): > 100000 nM
GI50 (DU-145 prostate): 557 nM
TGI (DU-145 prostate): > 100000 nM
GI50 (HCT-116 colon): 445 nM
TGI (HCT-116 colon): > 100000 nM
GI50 (OVCAR-8 ovarian): 1560 nM
TGI (OVCAR-8 ovarian): > 62600 nM
GI50 (A549 NSCLC): 868 nM
TGI (A549 NSCLC): > 100000 nM
GI50 (HOP-62 NSCLC): 713 nM
TGI (HOP-62 NSCLC): > 100000 nM
GI50 (NCI-H522 lung): 336 nM
TGI (NCI-H522 lung): 12700 nM
GI50 (HCT-15 colon): 537 nM
TGI (HCT-15 colon): > 100000 nM
GI50 (IGROV1 ovarian): 831 nM
TGI (IGROV1 ovarian): > 100000 nM
GI50 (OVCAR-3 ovarian): 273 nM
TGI (OVCAR-3 ovarian): 815 nM
GI50 (NCI/ADR-RES ovarian): 498 nM
TGI (NCI/ADR-RES ovarian): > 100000 nM
GI50 (K-562 leukemia): 410 nM
TGI (K-562 leukemia): > 100000 nM
GI50 (T-47D breast): 376 nM
TGI (T-47D breast): 37000 nM
GI50 (NCI-H226 lung): 4170 nM
TGI (NCI-H226 lung): > 43900 nM
GI50 (LOX IMVI melanoma): 627 nM
TGI (LOX IMVI melanoma): 21300 nM
GI50 (SNB-19 CNS): 1660 nM
TGI (SNB-19 CNS): > 100000 nM
GI50 (UACC-62 melanoma): 599 nM
